{"source": "paper PMC10223265", "about": "(Viruses, 2023)", "key": {"CEMx174 5.25M7 cells": {"tested_on": "CEMx174 5.25M7 cells", "test": "Cell Counting Kit-8 (CCK8) cytotoxicity assay", "type": "cell-based", "conditions": "at 2000 nM"}, "[1]": {"test": "CD spectroscopy of isolated peptides", "type": "physicochemical", "conditions": "10 μM, [θ]222nm"}, "[2]": {"test": "Solubility (saturated solution, RP-HPLC)", "type": "physicochemical"}, "proteinase K": {"molecular_target": "proteinase K (Parengyodontium album, UniProt P06873)", "sequence (P06873 106-384)": "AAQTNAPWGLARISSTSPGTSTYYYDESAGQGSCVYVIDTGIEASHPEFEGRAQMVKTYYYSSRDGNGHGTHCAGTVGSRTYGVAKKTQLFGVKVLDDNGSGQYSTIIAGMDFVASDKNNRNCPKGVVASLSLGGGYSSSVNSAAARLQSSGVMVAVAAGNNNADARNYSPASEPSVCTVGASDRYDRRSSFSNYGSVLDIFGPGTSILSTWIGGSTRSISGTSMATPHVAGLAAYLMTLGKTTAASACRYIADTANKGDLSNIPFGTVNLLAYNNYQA", "test": "Metabolic stability in proteinase K solution", "type": "in vitro ADME", "conditions": "proteinase K 100 ng/mL, 50 μM peptide, 37 °C, 4-h incubation, read-out: original amount remaining"}, "[3]": {"test": "Metabolic stability in rat plasma", "type": "in vitro ADME", "conditions": "37 °C, 4-h incubation, read-out: degradation"}, "[4]": {"tested_on": "HIV-1 BaL strain (subtype B, R5)", "test": "HIV-1 infection assay (p24 ELISA), laboratory-adapted R5 virus", "type": "cell-based", "conditions": "Human immunodeficiency virus 1, BAL, CEMx174 5.25M7"}, "[5]": {"tested_on": "HIV-1 91US_4 (subtype B, R5)", "test": "HIV-1 infection assay, primary isolate 91US_4", "type": "cell-based", "conditions": "Human immunodeficiency virus 1, primary isolate 91US_4, subtype B, CEMx174 5.25 M7 cells"}, "[6]": {"tested_on": "HIV-1 J32228M4 (subtype D, R5)", "test": "HIV-1 infection assay, primary isolate J32228M4", "type": "cell-based", "conditions": "Human immunodeficiency virus 1, CEMx174 5.25 M7 cells"}, "[7]": {"tested_on": "HIV-1 strain 89BZ167 (subtype B, X4)", "test": "HIV-1 infection assay, primary isolate 89BZ167", "type": "cell-based", "conditions": "Human immunodeficiency virus 1, CEMx174 5.25M7"}, "[8]": {"tested_on": "HIV-1 92UG029 (subtype A, X4)", "test": "HIV-1 infection assay, primary isolate 92UG029", "type": "cell-based", "conditions": "Human immunodeficiency virus 1, primary isolate 92UG029, subtype A, CEMx174 5.25 M7 cells"}, "CCR5": {"molecular_target": "CCR5 (Homo sapiens, UniProt P51681)", "sequence (P51681 whole entry)": "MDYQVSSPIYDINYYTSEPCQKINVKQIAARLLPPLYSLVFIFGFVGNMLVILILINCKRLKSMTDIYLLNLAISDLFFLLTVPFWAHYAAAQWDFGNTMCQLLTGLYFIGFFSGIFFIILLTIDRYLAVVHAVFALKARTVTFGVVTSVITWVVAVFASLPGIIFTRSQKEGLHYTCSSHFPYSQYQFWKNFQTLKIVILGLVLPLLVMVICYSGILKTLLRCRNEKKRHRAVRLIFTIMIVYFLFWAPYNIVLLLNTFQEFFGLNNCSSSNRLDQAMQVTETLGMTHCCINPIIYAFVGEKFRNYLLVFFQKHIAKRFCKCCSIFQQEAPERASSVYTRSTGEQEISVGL", "test": "RANTES-induced calcium mobilization assay in CCR5-expressing HEK293 cells", "type": "cell-based", "conditions": "RANTES 34.6 nM, HEK293 cells expressing Gα15 and CCR5, Fluo-4"}, "[9]": {"conditions": "PBS pH 7.4, room temperature, read-out: Solubility in PBS (pH 7.4)"}}, "note": "Read-outs that look alike come from different tables or passages of the source. Where a SMILES comes first, the peptide text is derived from it. Side-chain parts run from the residue outwards. The star is where a group is joined. X1 = CC(=O)N1CCC(C(=O)N(CCCN2CCC(Cc3ccc(C(=O)*)cc3)CC2)c2ccc(C)c(Cl)c2)CC1; PEG4 = NCCOCCOCCOCCOCCC(=O)O", "data": [{"compound": "CC[C@H](C)[C@H](NC(=O)[C@H](CO)NC(=O)[C@H](CCC(=O)O)NC(=O)[C@H](CCC(=O)O)NC(=O)[C@H](CCC(N)=O)NC(=O)[C@H](CCCCN)NC(=O)[C@H](CCCCN)NC(=O)[C@@H](NC(=O)[C@H](CCC(N)=O)NC(=O)[C@H](CCC(=O)O)NC(=O)[C@H](CCC(=O)O)NC(=O)[C@@H](NC(=O)[C@H](CCCCN)NC(=O)[C@H](CCCCN)NC(=O)[C@@H](NC(=O)[C@H](CC(C)C)NC(=O)[C@H](CCC(=O)O)NC(=O)[C@H](CCC(=O)O)NC(=O)[C@H](CO)NC(=O)[C@H](CCCCN)NC(=O)[C@H](CCCCN)NC(=O)[C@@H](NC(=O)[C@H](CC(C)C)NC(=O)[C@H](CCC(=O)O)NC(=O)[C@H](CCC(=O)O)NC(=O)[C@@H](NC(=O)[C@H](CCCCN)NC(=O)[C@H](CCCCN)NC(=O)[C@H](CC(=O)O)NC(=O)[C@H](Cc1c[nH]c2ccccc12)NC(=O)[C@H](CCC(=O)O)NC(=O)[C@H](CCC(=O)O)NC(=O)[C@H](Cc1c[nH]c2ccccc12)NC(=O)[C@@H](NC(=O)[C@H](CCSC)NC(C)=O)[C@@H](C)O)[C@@H](C)CC)[C@@H](C)CC)[C@@H](C)CC)[C@@H](C)CC)[C@@H](C)CC)C(=O)N[C@@H](CCCCN)C(=O)N[C@@H](CCCCN)C(=O)N[C@@H](CCCCNC(=O)CCOCCOCCOCCOCCNC(=O)c1ccc(CC2CCN(CCCN(C(=O)C3CCN(C(C)=O)CC3)c3ccc(C)c(Cl)c3)CC2)cc1)C(N)=O", "note": "[AP3P4E] (Ac-MTWEEWDKKIEELIKKSEELIKKIEEQIKKQEESIKKK([PEG4-X1])-NH2)", "values": [{"measurement": "cytotoxicity", "setting": "CEMx174 5.25M7 cells", "value": "no cytotoxicity"}, {"measurement": "helical content (isolated peptide)", "setting": "[1]", "value": 83, "unit": "%"}, {"measurement": "solubility at 24 h", "setting": "[2]; [9]", "value": "> 60000", "unit": "µg/mL"}, {"measurement": "solubility at 24 h", "setting": "[2]; dd-H2O, H2O, room temperature, read-out: Solubility in H2O", "value": "> 60000", "unit": "µg/mL"}, {"measurement": "remaining at 4 h, 50 μM", "setting": "proteinase K", "value": 89.9, "unit": "%"}]}, {"compound": "enfuvirtide", "values": [{"measurement": "solubility thermodynamic at 24 h", "setting": "[2]; [9]", "value": "1020 ± 30", "unit": "µg/mL"}, {"measurement": "solubility thermodynamic at 24 h", "setting": "[2]; water (dd-H2O), H2O, room temperature, read-out: Solubility in H2O", "value": "330 ± 10", "unit": "µg/mL"}, {"measurement": "remaining at 4 h, 50 μM", "setting": "proteinase K", "value": 35.8, "unit": "%"}, {"measurement": "metabolised at 4 h, 50 μM", "setting": "[3]", "value": 68, "unit": "%"}]}, {"compound": "CC(=O)N1CCC(C(=O)N(CCCN2CCC(Cc3ccc(C(N)=O)cc3)CC2)c2ccc(C)c(Cl)c2)CC1", "note": "[TAK-220]", "values": [{"measurement": "EC50", "setting": "[4]", "value": "23.8 ± 13.3", "unit": "nM"}, {"measurement": "EC50", "setting": "[5]", "value": "12.1 ± 2.7", "unit": "nM"}, {"measurement": "EC50", "setting": "[6]", "value": "161 ± 6.6", "unit": "nM"}, {"measurement": "EC50", "setting": "[7]", "value": "> 300", "unit": "nM"}, {"measurement": "EC50", "setting": "[8]", "value": "> 300", "unit": "nM"}, {"measurement": "IC50", "setting": "CCR5", "value": 0.74, "unit": "nM"}]}, {"compound": "CC[C@H](C)[C@H](NC(=O)[C@H](CO)NC(=O)[C@H](CCC(=O)O)NC(=O)[C@H](CCC(=O)O)NC(=O)[C@H](CCC(N)=O)NC(=O)[C@H](CCCCN)NC(=O)[C@H](CCCCN)NC(=O)[C@@H](NC(=O)[C@H](CCC(N)=O)NC(=O)[C@H](CCC(=O)O)NC(=O)[C@H](CCC(=O)O)NC(=O)[C@@H](NC(=O)[C@H](CCCCN)NC(=O)[C@H](CCCCN)NC(=O)[C@@H](NC(=O)[C@H](CC(C)C)NC(=O)[C@H](CCC(=O)O)NC(=O)[C@H](CCC(=O)O)NC(=O)[C@H](CO)NC(=O)[C@H](CCCCN)NC(=O)[C@H](CCCCN)NC(=O)[C@@H](NC(=O)[C@H](CC(C)C)NC(=O)[C@H](CCC(=O)O)NC(=O)[C@H](CCC(=O)O)NC(=O)[C@@H](NC(=O)[C@H](CCCCN)NC(=O)[C@H](CCCCN)NC(=O)[C@H](CC(=O)O)NC(=O)[C@H](Cc1c[nH]c2ccccc12)NC(=O)[C@H](CCC(=O)O)NC(=O)[C@H](CCC(=O)O)NC(=O)[C@H](Cc1c[nH]c2ccccc12)NC(=O)[C@@H](NC(=O)[C@H](CCSC)NC(C)=O)[C@@H](C)O)[C@@H](C)CC)[C@@H](C)CC)[C@@H](C)CC)[C@@H](C)CC)[C@@H](C)CC)C(=O)N[C@@H](CCCCN)C(=O)N[C@@H](CCCCN)C(N)=O", "note": "[AP3] (Ac-MTWEEWDKKIEELIKKSEELIKKIEEQIKKQEESIKK-NH2)", "values": [{"measurement": "helical content (isolated peptide)", "setting": "[1]", "value": 86, "unit": "%"}, {"measurement": "IC50", "setting": "CCR5", "value": "> 625", "unit": "nM"}]}]}
